Experiment: mn = molality of the nth substance listed, in mol/kg
Details: 100 kPa, Liquid; for mass density: Vibrating tube method; for speed of sound: Frequency=2 MHz, Linear variable-path acoustic interferometer

CCCCn1cc[n+](C)c1.NCC(=O)[O-] [1-butyl-3-methylimidazolium glycinate] + O
Details	mass density [kg/m3]	speed of sound [m/s]
293.15 K, m1 = 0.03911	999.516	–
293.15 K, m1 = 0.05766	1000.13	–
293.15 K, m1 = 0.07571	1000.71	–
293.15 K, m1 = 0.09405	1001.28	–
293.15 K, m1 = 0.1177	1002.03	–
293.15 K, m1 = 0.1634	1003.42	–
293.15 K, m1 = 0.2013	1004.58	–
293.15 K, m1 = 0.2535	1006.13	–
293.15 K, m1 = 0.2905	1007.2	–
293.15 K, m1 = 0.3496	1008.89	–
293.15 K, m1 = 0.4089	1010.57	–
293.15 K, m1 = 0.4607	1012	–
293.15 K, m1 = 0.5188	1013.58	–
298.15 K, m1 = 0.03911	998.332	–
298.15 K, m1 = 0.05112	–	1505.2
298.15 K, m1 = 0.05766	998.92	–
298.15 K, m1 = 0.07571	999.491	–
298.15 K, m1 = 0.09405	1000.03	–
298.15 K, m1 = 0.1057	–	1512.8
298.15 K, m1 = 0.1177	1000.77	–
298.15 K, m1 = 0.1479	–	1518.7
298.15 K, m1 = 0.1634	1002.14	–
298.15 K, m1 = 0.1966	–	1525.4
298.15 K, m1 = 0.2013	1003.25	–
298.15 K, m1 = 0.2458	–	1531.5
298.15 K, m1 = 0.2535	1004.78	–
298.15 K, m1 = 0.2904	–	1537.8
298.15 K, m1 = 0.2905	1005.83	–
298.15 K, m1 = 0.3486	–	1545.1
298.15 K, m1 = 0.3496	1007.53	–
298.15 K, m1 = 0.4012	–	1551.1
298.15 K, m1 = 0.4089	1009.11	–
298.15 K, m1 = 0.4523	–	1557.8
298.15 K, m1 = 0.4607	1010.51	–
298.15 K, m1 = 0.5188	1012.11	–
298.15 K, m1 = 0.5271	–	1566.9
303.15 K, m1 = 0.03911	996.915	–
303.15 K, m1 = 0.05766	997.485	–
303.15 K, m1 = 0.07571	998.049	–
303.15 K, m1 = 0.09405	998.596	–
303.15 K, m1 = 0.1177	999.306	–
303.15 K, m1 = 0.1634	1000.64	–
303.15 K, m1 = 0.2013	1001.73	–
303.15 K, m1 = 0.2535	1003.2	–
303.15 K, m1 = 0.2905	1004.25	–
303.15 K, m1 = 0.3496	1005.87	–
303.15 K, m1 = 0.4089	1007.48	–
303.15 K, m1 = 0.4607	1008.89	–
303.15 K, m1 = 0.5188	1010.43	–
308.15 K, m1 = 0.03804	995.245	–
308.15 K, m1 = 0.05959	995.908	–
308.15 K, m1 = 0.07881	996.479	–
308.15 K, m1 = 0.09916	997.101	–
308.15 K, m1 = 0.1199	997.708	–
308.15 K, m1 = 0.1512	998.623	–
308.15 K, m1 = 0.206	1000.16	–
308.15 K, m1 = 0.2462	1001.31	–
308.15 K, m1 = 0.2873	1002.43	–
308.15 K, m1 = 0.359	1004.36	–
308.15 K, m1 = 0.3954	1005.3	–
308.15 K, m1 = 0.4498	1006.76	–
308.15 K, m1 = 0.5188	1008.59	–
313.15 K, m1 = 0.03949	993.444	–
313.15 K, m1 = 0.05959	994.046	–
313.15 K, m1 = 0.07881	994.62	–
313.15 K, m1 = 0.09916	995.217	–
313.15 K, m1 = 0.1199	995.816	–
313.15 K, m1 = 0.1512	996.706	–
313.15 K, m1 = 0.206	998.24	–
313.15 K, m1 = 0.2462	999.361	–
313.15 K, m1 = 0.2873	1000.45	–
313.15 K, m1 = 0.359	1002.39	–
313.15 K, m1 = 0.3954	1003.31	–
313.15 K, m1 = 0.4498	1004.72	–
313.15 K, m1 = 0.5188	1006.52	–
